The values below come from US20210395327A1, “Growth Hormone-Releasing Hormone Antagonists and Uses Thereof” (United States Government As Represented By The Department …, priority 2019, published 2021).

Like-named read-outs stand apart in the source and are kept apart here. Non-standard residues stand in square brackets, D forms with d. Residues, ends and D or L forms follow the SMILES beside them. *: point of attachment. Phenylacetyl(2,3,4,5,6-F5) = O=C(Cc1c(F)c(F)c(F)c(F)c1F)*; Phe(F5) = N[C@@H](Cc1c(F)c(F)c(F)c(F)c1F)C(=O)O; Phe(4-Cl) = N[C@@H](Cc1ccc(Cl)cc1)C(=O)O; hArg = N=C(N)NCCCC[C@H](N)C(=O)O; 12Ado = NCCCCCCCCCCCC(=O)O; Nle = CCCC[C@H](N)C(=O)O; Orn = NCCC[C@H](N)C(=O)O; Abu = CC[C@H](N)C(=O)O; PhAc = O=C(Cc1ccccc1)*

For test [1], the system named is PANC-1 pancreatic cancer cells. Nature of the test: In vitro cell viability, PANC-1. The test is classed as cell-based, human. Particulars: antagonist 5 μM for 72 h, cell proliferation assay; MIA602 = 1. Here is the method: (§1) The inhibitory effects of the various synthesized GHRH antagonists were tested in cell proliferation assays in various human cancer cell lines including stomach cancer (KATOIII, N87), colon cancer (HT-29), urothelial cancer (J82, RT4), pancreatic cancer (PANC-1, CFPAC-1), prostatic cancer (PC3), breast cancer (MX-1, HCC1806), ovarian cancer (SK-OV-3, OVCAR-3) and lung cancer (HCC827, H460).
(§2) Cell culture. Human cancer cell lines including pancreatic (PANC-1 and CFPAC-1), lung (HCC827 and H460), stomach (NCI-N87 and KATOIII), urothelial (J82, RT4), prostatic (PC3), breast (MX-1 and HCC 1806), colorectal (HT-29), and ovarian (SK-OV-3 and OVCAR-3) were obtained from the American Type Culture Collection (ATCC) and cultured at 37° C. in a humidified 95% air/5% CO2 atmosphere in the medium recommended by ATCC.
(§3) In vitro cell viability. Cell viability was analyzed as follows: cancer cells including pancreatic (PANC-1 and CFPAC-1), lung (HCC827 and H460), stomach (NCI-N87 and KATOIII), urothelial (J82, RT4), prostatic (PC3) and breast (MX-1 and HCC 1806), colorectal (HT-29) and ovarian (SK-OV-3 and OVCAR-3) were grown on 96 well plates to ˜60% confluence, the cells were starved for 24 h in culture medium containing 0.5% FBS. Cells were then treated with GHRH antagonists MIA602 AVR compounds at concentrations of 1, 2.5 or 5 μM, or vehicle (0.1% DMSO) in quintuplicates for 72 hours. The medium was replaced every 48 hours. Cell viability was measured using CellTiter 96 aqueous one solution kit (Promega). Inhibitory effects of tested AVR compounds in comparison to that of MIA602 are presented as inhibitory potency.
(§4) Inhibitory effects of selected AVR compounds in comparison to that of MIA602 are presented as inhibitory potency (e.g., percentage of inhibition). […] The cell lines tested including lung cancer HCC827 (FIG. 2A), pancreatic cancer CFPAC-1 (FIG. 2B), stomach cancer N87 (FIG. 2C), colon cancer HT-29 (FIG. 2D), breast cancers MX-1 and HCC1806 (FIGS. 2 E, F). Based on the results of cell proliferation assay after cancer cells were treated with antagonist at concentration of 5 μM for 72H, the relative inhibitory potency of AVR antagonists in comparison to MIA-602 is summarized in Table 3 A and B. Over 60 AVR compounds were tested in 12 cancer cell lines.

Test [2] has as its system J82 urothelial cancer cells. Nature of the test: In vitro cell viability, J82. Format: cell-based, human. Particulars: antagonist 5 μM for 72 h, cell proliferation assay; MIA602 = 1. How it is done: as §1, §2, §3, §4
Test [3] has as its target T1, membrane GHRH-receptors on human anterior pituitary cells (Homo sapiens, UniProt Q02643).
T1 construct: Human pituitary was purchased from the National Hormone and Peptide Program; tissue National Hormone and Peptide Program; host or cells: human pituitary (membrane fractions)
T1 sequence (Q02643 23-423): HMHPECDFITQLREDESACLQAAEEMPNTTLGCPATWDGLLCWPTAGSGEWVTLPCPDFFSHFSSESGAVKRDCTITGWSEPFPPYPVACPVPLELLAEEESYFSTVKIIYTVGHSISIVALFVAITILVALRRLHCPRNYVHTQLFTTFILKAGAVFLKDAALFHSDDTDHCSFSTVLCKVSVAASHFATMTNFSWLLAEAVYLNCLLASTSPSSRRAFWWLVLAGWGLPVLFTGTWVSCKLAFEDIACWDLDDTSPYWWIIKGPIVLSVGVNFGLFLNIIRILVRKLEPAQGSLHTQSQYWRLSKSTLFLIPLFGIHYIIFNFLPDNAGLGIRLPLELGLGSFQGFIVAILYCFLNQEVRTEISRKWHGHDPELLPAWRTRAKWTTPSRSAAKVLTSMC
The test is described as follows: Receptor binding, displacement of 125I-[His1,Nle27]-hGH-RH(1-32)NH2 on human pituitary membranes. How it is done: Receptor binding affinities in vitro. Preparation of human pituitary membrane fractions and receptor binding of analogs of GH-RH were performed (Halmos G, Rekasi Z, Szoke B, Schally A V. (1993) Receptor 3:87-97). Human pituitary was purchased from the National Hormone and Peptide Program. […] Relative affinities compared to hGH-RH(1-29)NH2 were calculated as the ratio of IC50 (dose causing 50% inhibition of specific binding to receptors) of the tested peptides to the IC50 of hGH-RH(1-29)NH2. The values were calculated from technical duplicate tubes.
Nineteen new AVR analogs of GHRH were tested in the receptor binding assay. Table 6 presents the IC50 values of GHRH antagonists to membrane GHRH-receptors binding on human anterior pituitary cells.
(In general: Loss of bound radioactivity is the signal in a displacement assay; it reports binding, not function.)

The subject of test [4] is NCI-N87 stomach cancer cells. Nature of the test: In vitro cell viability (CellTiter 96), N87. Format: cell-based, human. Particulars: antagonist 5 μM for 72 h, cell proliferation assay; MIA602 = 1. How it is done:
as §1, §2, §3, §4
(§5) Based on the results of cell proliferation assay after cancer cells were treated with antagonist at concentration of 5 µM for 72H, * at concentration of 2 µM for 72 H.

For test [5], the system named is KATOIII stomach cancer cells. The test is described as follows: In vitro cell viability, KATOIII. Format: cell-based, human. Particulars: antagonist 5 μM for 72 h, cell proliferation assay; MIA602 = 1. Here is the method:
as §1, §2, §3, §4

The subject of test [6] is CFPAC-1 pancreatic cancer cells. Nature of the test: In vitro cell viability, CFPAC-1. The test is classed as cell-based, human. Particulars: antagonist 5 μM for 72 h, cell proliferation assay; MIA602 = 1. Here is the method: as §1, §2, §3, §4, §5
For test [7], the system named is HCC827 lung cancer cells. The test is described as follows: In vitro cell viability, HCC827. Format: cell-based, human. The note with it: antagonist 5 μM for 72 h, cell proliferation assay; MIA602 = 1. How it is done:
as §1, §2, §3, §4, §5

In the case of `CCCC[C@H](NC(=O)[C@@H](NC(=O)[C@H](CC(=O)O)NC(=O)[C@H](CCC(N)=O)NC(=O)[C@H](CC(C)C)NC(=O)[C@H](CC(C)C)NC(=O)[C@H](CCCN)NC(=O)[C@H](Cc1c[nH]cn1)NC(=O)[C@H](C)NC(=O)[C@H](CO)NC(=O)[C@H](CC(C)C)NC(=O)[C@H](CCC(N)=O)NC(=O)[C@H](CC)NC(=O)[C@H](CC(C)C)NC(=O)[C@@H](NC(=O)[C@H](CCCCN)NC(=O)[C@H](CCCNC(=N)N)NC(=O)[C@H](Cc1c(F)c(F)c(F)c(F)c1F)NC(=O)[C@H](CCCNC(=N)N)NC(=O)[C@H](C)NC(=O)[C@@H](NC(=O)[C@H](Cc1ccc(Cl)cc1)NC(=O)[C@@H](NC(=O)[C@H](C)NC(=O)[C@H](CC(=O)O)NC(=O)[C@@H](CCCNC(=N)N)NC(=O)[C@H](Cc1ccc(O)cc1)NC(=O)CCCCCCCCCCCNC(=O)Cc1ccccc1)[C@@H](C)CC)[C@@H](C)O)C(C)C)[C@@H](C)CC)C(=O)N[C@H](CCCNC(=N)N)C(=O)N[C@@H](CCCCNC(=N)N)C(N)=O` [AVR-116, PhAC-Ada-Tyr-DArg-Asp-Ala-Ile-Cpa-Thr-Ala-Arg-5FPhe-Arg-Lys-Val-Leu-Abu-Gln-Leu-Ser-Ala-His-Orn-Leu-Leu-Gln-Asp-Ile-Nle-DArg-Har-NH2] ({PhAc-12Ado}-Y[dR]DAI[Phe(4-Cl)]TAR[Phe(F5)]RKVL[Abu]QLSAH[Orn]LLQDI[Nle][dR][hArg]-NH2), in test [1], the “relative inhibitory potency in comparison to MIA-602, Pancreatic Panc-1” value turned out to be 1.208. Also, the “relative inhibitory potency in comparison to MIA-602, Urothelial J82” value in test [2] was 3.034. The IC50 (usually the midpoint of a concentration-inhibition curve) in test [3] is 500 pM. For the same compound, the “relative inhibitory potency in comparison to MIA-602, Stomach N87” value in test [4] was determined as 2.484. Moreover, the “relative inhibitory potency in comparison to MIA-602, Stomach KATOIII” value (shortened to “relative inhibitory potency … Stomach KATOIII”) in test [5] came to 1.202. Moreover, in test [6], the “relative inhibitory potency in comparison to MIA-602, Pancreatic CFPAC-1” value (shortened to “relative inhibitory potency … Pancreatic CFPAC-1”) was 1.445. The “relative inhibitory potency in comparison to MIA-602, Lung IICC827” value (from here on “relative inhibitory potency … Lung IICC827”) in test [7] is given as 2.470.

Turning to `CCCC[C@H](NC(=O)[C@@H](NC(=O)[C@H](CC(=O)O)NC(=O)[C@H](CCC(N)=O)NC(=O)[C@H](CC(C)C)NC(=O)[C@H](CC(C)C)NC(=O)[C@H](CCCN)NC(=O)[C@H](Cc1c[nH]cn1)NC(=O)[C@H](C)NC(=O)[C@H](CO)NC(=O)[C@H](CC(C)C)NC(=O)[C@H](CCC(N)=O)NC(=O)[C@H](CC)NC(=O)[C@H](CC(C)C)NC(=O)[C@@H](NC(=O)[C@H](CCCCN)NC(=O)[C@H](CCCNC(=N)N)NC(=O)[C@H](Cc1ccc(OC)cc1)NC(=O)[C@H](CCCNC(=N)N)NC(=O)[C@H](CC(N)=O)NC(=O)[C@@H](NC(=O)[C@H](Cc1ccc(Cl)cc1)NC(=O)[C@@H](NC(=O)[C@H](C)NC(=O)[C@H](CC(=O)O)NC(=O)[C@@H](CCCNC(=N)N)NC(=O)[C@H](Cc1ccc(O)cc1)NC(=O)CCCCCCCCCCCNC(=O)Cc1c(F)c(F)c(F)c(F)c1F)[C@@H](C)CC)[C@@H](C)O)C(C)C)[C@@H](C)CC)C(=O)N[C@H](CCCNC(=N)N)C(=O)N[C@@H](CCCCNC(=N)N)C(=O)NCCCCCCCCCCCC(N)=O` [AVR-620, 5FPhAC-Ada-Tyr-DArg-Asp-Ala-Ile-Cpa-Thr-Asn-Arg-Tyr(Me)-Arg-Lys-Val-Leu-Abu-Gln-Leu-Ser-Ala-His-Orn-Leu-Leu-Gln-Asp-Ile-Nle-DArg-Har-Ada-NH2] ({Phenylacetyl(2,3,4,5,6-F5)-12Ado}-Y[dR]DAI[Phe(4-Cl)]TNRY(Me)RKVL[Abu]QLSAH[Orn]LLQDI[Nle][dR][hArg][12Ado]-NH2), the IC50 in test [3] (membrane receptors on human anterior pituitary cells, mean of two to three determinations, read-out: IC50) stood at 310 pM. Further, the “relative inhibitory potency … Stomach KATOIII” value in test [5] is on record as 1.769. Also, the “relative inhibitory potency … Pancreatic CFPAC-1” value in test [6] stood at 1.567. The “relative inhibitory potency … Lung IICC827” value in test [7] was 3.753.

Compound `CCCC[C@H](NC(=O)[C@@H](NC(=O)[C@H](CC(=O)O)NC(=O)[C@H](CCC(N)=O)NC(=O)[C@H](CC(C)C)NC(=O)[C@H](CC(C)C)NC(=O)[C@H](CCCCN)NC(=O)[C@H](CCCNC(=N)N)NC(=O)[C@H](C)NC(=O)[C@H](CO)NC(=O)[C@H](CC(C)C)NC(=O)[C@H](CCC(N)=O)NC(=O)[C@H](CC)NC(=O)[C@H](CC(C)C)NC(=O)[C@@H](NC(=O)[C@H](CCCCN)NC(=O)[C@H](CCCNC(=N)N)NC(=O)[C@H](Cc1ccc(OC)cc1)NC(=O)[C@H](CCCNC(=N)N)NC(=O)[C@H](CC(N)=O)NC(=O)[C@@H](NC(=O)[C@H](Cc1ccc(Cl)cc1)NC(=O)[C@@H](NC(=O)[C@H](C)NC(=O)[C@H](CC(=O)O)NC(=O)[C@@H](CCCNC(=N)N)NC(=O)[C@H](Cc1ccc(O)cc1)NC(=O)CCCCCCCCCCCNC(=O)Cc1ccccc1)[C@@H](C)CC)[C@@H](C)O)C(C)C)[C@@H](C)CC)C(=O)N[C@H](CCCNC(=N)N)C(=O)N[C@@H](CCCCNC(=N)N)C(=O)NC` [AVR-234, PhAC-Ada-Tyr-DArg-Asp-Ala-Ile-Cpa-Thr-Asn-Arg-Tyr(Me)-Arg-Lys-Val-Leu-Abu-Gln-Leu-Ser-Ala-Arg-Lys-Leu-Leu-Gln-Asp-Ile-Nle-DArg-Har-NHCH3] ({PhAc-12Ado}-Y[dR]DAI[Phe(4-Cl)]TNRY(Me)RKVL[Abu]QLSARKLLQDI[Nle][dR][hArg]-NHMe) displayed an IC50 in test [3] of 450 pM. The “relative inhibitory potency … Stomach KATOIII” value in test [5] is reported as 1.709. The “relative inhibitory potency … Pancreatic CFPAC-1” value in test [6] is given as 2.205. Further, in test [7], the “relative inhibitory potency … Lung IICC827” value is listed as 4.510.
